Consider 70 compounds from ChEMBL document CHEMBL4421722, “Inhibitors of protein prenyltransferases” (2013).

The assay is filed under the species Rattus norvegicus. Put plainly: Inhibition of rat recombinant geranylgeranyltransferase type I expressed in Escherichia coli assessed as residual enzyme activity for geranylgeranylation of K-Ras4B at 50 uM incubated for 30 mins in presence of [3H]GGPP by scintillation counting assay relative to control.
With `Cc1ccc(S(=O)(=O)N2[C@@H](c3cccc(F)c3)C(C(=O)O)=CC[C@H]2c2ccc(C#N)cc2)cc1`, the Activity was 88.3%.
For `Cc1ccc(S(=O)(=O)N2[C@@H](c3cccc(F)c3)C(C(=O)O)=CC[C@H]2c2ccc(Cl)c(Cl)c2)cc1` the value was 45.1%; for `COc1cc([C@@H]2C[C@@H](SCC(C)C)[C@H](C(=O)O)CN2S(=O)(=O)c2ccc(C)cc2)cc(OC)c1OC`, 98.3%; for `Cc1ccc([C@@H]2C[C@@H](SCCC(C)C)[C@H](C(=O)O)CN2S(=O)(=O)c2ccc(C)cc2)cc1`, 92.9%.
For `COc1ccc(S[C@@H]2C[C@@H](c3ccccc3)N(S(=O)(=O)c3ccc(C)cc3)C[C@H]2C(=O)O)cc1` the value was 99.1%; for `COC(=O)c1ccccc1S(=O)(=O)N1[C@@H](c2ccc(C(C)(C)C)cc2)C(C(=O)O)=CC[C@H]1c1ccc(C)cc1`, 111%.
As to `C=CCS[C@@H]1C[C@@H](c2cccc(Cl)c2)N(S(=O)(=O)c2ccc(C)cc2)C[C@H]1C(=O)O`, the Activity turned out to be 46.3%.
`COc1ccc([C@@H]2CC=C(C(=O)O)[C@H](c3ccc(F)cc3)N2S(=O)(=O)c2ccccc2)cc1`: the Activity worked out at 67.7%.
In the case of `Cc1ccc(S(=O)(=O)N2[C@@H](c3cccc(Cl)c3)C(C(=O)O)=CC[C@H]2c2ccccc2F)cc1` it was 70.1%; in that of `COc1ccc(S[C@@H]2C[C@@H](c3ccc(OC)cc3)N(S(=O)(=O)c3ccc(C)cc3)C[C@H]2C(=O)O)cc1`, 97%; in that of `CCCCCCS[C@@H]1C[C@@H](c2ccc(C)cc2)N(S(=O)(=O)c2ccccc2C)C[C@H]1C(=O)O`, 69.9%.
For `COc1ccc([C@@H]2CC=C(C(=O)O)[C@H](c3ccc(C)cc3)N2S(=O)(=O)c2ccc(C)cc2)cc1` the value was 73.8%; for `Cc1ccc([C@@H]2C[C@@H](SC3CCCC3)[C@H](C(=O)O)CN2S(C)(=O)=O)cc1`, 110%; for `CCCCCCS[C@@H]1C[C@@H](c2cccc(Cl)c2)N(S(=O)(=O)c2ccc(C)cc2)C[C@H]1C(=O)O`, 77.3%.
For `COc1cccc([C@@H]2C[C@@H](Sc3ccc(C)cc3)[C@H](C(=O)O)CN2S(=O)(=O)c2ccc(C)cc2)c1`, the Activity was found to be 77%.
In the case of `CCCS[C@@H]1C[C@@H](c2ccc(OC)c(OC)c2)N(S(=O)(=O)c2ccc(C)cc2)C[C@H]1C(=O)O` it was 91.4%.
As to `COc1cccc([C@@H]2CC=C(C(=O)O)[C@H](c3ccc(Br)cc3)N2S(=O)(=O)c2ccc(C)cc2)c1`, the Activity amounted to 65.8%.
Take `Cc1ccccc1S(=O)(=O)N1C[C@@H](C(=O)O)[C@H](SC2CCCC2)C[C@H]1c1ccc(Cl)cc1`: the Activity was determined as 92.1%.
In the case of `Cc1ccc(S(=O)(=O)N2[C@@H](c3ccc(Br)cc3)C(C(=O)O)=CC[C@H]2c2ccc(Cl)cc2)cc1` it was 57.5%; in that of `Cc1ccc([C@H]2C(C(=O)O)=CC[C@@H](c3ccc(C)cc3)N2S(=O)(=O)c2ccccc2)cc1`, 99.8%; in that of `Cc1ccc(S(=O)(=O)N2[C@@H](c3cccc(Cl)c3)C(C(=O)O)=CC[C@H]2c2ccc(C(C)C)cc2)cc1`, 63.1%.
For `CC(=O)C1=CC[C@@H](c2cccs2)N(S(=O)(=O)c2ccc(C)cc2)C1`, the Activity is 90.3%.
For `Cc1ccc(S(=O)(=O)N2[C@@H](c3ccc(C(C)(C)C)cc3)C(C(=O)O)=CC[C@H]2c2ccc(Cl)c(Cl)c2)cc1`, the Activity worked out at 74.3%.
For `CS(=O)(=O)N1[C@@H](c2ccc(F)cc2)C(C(=O)O)=CC[C@H]1c1ccccc1` the value was 67.2%; for `COc1ccc([C@@H]2CC=C(C(=O)O)[C@H](c3cccc(F)c3)N2S(=O)(=O)c2ccc(Cl)cc2)cc1`, 69.3%; for `Cc1ccc(S(=O)(=O)N2C[C@@H](C(=O)O)[C@H](SCC(C)C)C[C@H]2c2cccc(Cl)c2)cc1`, 79.7%.
For `COc1cccc([C@@H]2CC=C(C(=O)O)[C@H](c3ccc(Cl)cc3)N2S(=O)(=O)c2ccc(C)cc2)c1` the value was 54.1%; for `Cc1ccc(S(=O)(=O)N2[C@@H](c3ccc(F)cc3)C(C(=O)O)=CC[C@H]2c2cccc(F)c2)cc1`, 63.4%.
For the compound `C=CCS[C@@H]1C[C@@H](c2ccc(OC)cc2)N(S(=O)(=O)c2ccc(C)cc2)C[C@H]1C(=O)O`, the Activity is 108%.
Take `COc1cccc([C@@H]2C[C@@H](SCC(C)C)[C@H](C(=O)O)CN2S(=O)(=O)c2ccc(C)cc2)c1`: the Activity came to 64.5%.
In the case of `CCOc1ccc([C@@H]2CC=C(C(=O)O)[C@H](c3ccc(C)cc3)N2S(=O)(=O)c2ccc(C)cc2)cc1` it was 63.2%; in that of `Cc1ccc(S(=O)(=O)N2[C@@H](c3ccc(Cl)cc3)C(C(=O)O)=CC[C@H]2c2cccc(F)c2)cc1`, 63.5%.
In the case of `Cc1ccc([C@@H]2CC=C(C(=O)O)[C@H](c3ccc(Cl)cc3)N2S(=O)(=O)c2ccccc2)cc1` it was 79.9%; in that of `Cc1ccc([C@H]2C(C(=O)O)=CC[C@@H](c3ccccc3F)N2S(=O)(=O)c2ccc(C)cc2)cc1`, 92.9%.
For `Cc1ccc(S(=O)(=O)N2C[C@@H](C(=O)O)[C@H](SC3CCCC3)C[C@H]2c2cccc(Cl)c2)cc1` the value was 88.7%; for `Cc1ccc([C@@H]2CC=C(C(=O)O)[C@H](c3ccc(F)cc3)N2S(=O)(=O)c2ccc(C)cc2)cc1`, 67.7%.
Take `COc1ccc([C@@H]2CC=C(C(=O)O)[C@H](c3cccc(C)c3)N2S(=O)(=O)c2ccc(C)cc2)cc1`: the Activity came to 67.3%.
Consider `COc1ccc([C@@H]2C[C@@H](SCc3ccccc3)[C@H](C(=O)O)CN2S(=O)(=O)c2ccc(C)cc2)cc1OC`, for which the Activity is 54.5%.
For `Cc1ccc([C@@H]2C[C@@H](Sc3ccc(Cl)cc3)[C@H](C(=O)O)CN2S(C)(=O)=O)cc1` the value was 105%; for `Cc1ccc([C@@H]2C[C@@H](Sc3ccccc3)[C@H](C(=O)O)CN2S(C)(=O)=O)cc1`, 99.6%; for `COc1ccc([C@@H]2C[C@@H](Sc3ccc(C)cc3)[C@H](C(=O)O)CN2S(=O)(=O)c2ccc(Cl)cc2)cc1`, 83.2%.
For `CC(C)(C)c1ccc([C@H]2C(C(=O)O)=CC[C@@H](c3ccc(Cl)cc3)N2S(C)(=O)=O)cc1` the value was 60.4%; for `CC(=O)C1=CC[C@@H](c2ccc(C)cc2)N(S(=O)(=O)c2ccccc2[N+](=O)[O-])C1`, 110%.
In the case of `Cc1ccc([C@@H]2CC=C(C(=O)O)[C@H](c3cccc(Cl)c3)N2S(=O)(=O)c2ccc(Cl)cc2)cc1` it was 8.4 to 60%; in that of `COc1ccc([C@@H]2C[C@@H](SCc3ccc(C(C)(C)C)cc3)[C@H](C(=O)O)CN2S(=O)(=O)c2ccccc2)cc1`, 53%; in that of `Cc1ccc(S(=O)(=O)N2[C@@H](c3ccc(F)cc3)C(C(=O)O)=CC[C@H]2c2ccc(F)cc2)cc1`, 66.8%.
With `Cc1ccc(S[C@@H]2C[C@@H](c3ccccc3)N(S(=O)(=O)c3ccc(C)cc3)C[C@H]2C(=O)O)cc1`, the Activity worked out at 98%.
Take `Cc1cccc([C@H]2C(C(=O)O)=CC[C@@H](c3ccc(Cl)cc3)N2S(=O)(=O)c2ccc(Cl)cc2)c1`: the Activity came out at 89.5%.
In the case of `Cc1ccc(S(=O)(=O)N2[C@@H](c3cccc(F)c3)C(C(=O)O)=CC[C@H]2c2ccc(F)cc2)cc1` it was 70.1%.
In the case of `Cc1ccccc1S(=O)(=O)N1C[C@@H](C(=O)O)[C@H](SCc2ccc(C(C)(C)C)cc2)C[C@H]1c1ccc(Cl)cc1` it was 43.1%; in that of `COc1ccc([C@@H]2C[C@@H](SCCC(C)C)[C@H](C(=O)O)CN2S(=O)(=O)c2ccc(Cl)cc2)cc1`, 81.4%.
Consider `Cc1ccc(S(=O)(=O)N2C[C@@H](C(=O)O)[C@H](SCc3ccc(Cl)cc3)C[C@H]2c2ccccc2F)cc1`, for which the Activity amounted to 61.4%.
For the compound `Cc1ccc([C@H]2C(C(=O)O)=CC[C@@H](c3cccc(F)c3)N2S(=O)(=O)c2ccc(C)cc2)cc1`, the Activity amounted to 81.3%.
For `Cc1ccc([C@@H]2CC=C(C(=O)O)[C@H](c3ccc(Br)cc3)N2S(=O)(=O)c2ccccc2C)cc1` the value was 82%; for `Cc1ccc(S(=O)(=O)N2C[C@@H](C(=O)O)[C@H](SC3CCCC3)C[C@H]2c2ccc3c(c2)OCO3)cc1`, 98.1%.
Consider `Cc1ccc(S(=O)(=O)N2[C@@H](c3ccc(F)cc3)C(C(=O)O)=CC[C@H]2c2cccs2)cc1`, for which the Activity was determined as 62.3%.
In the case of `Cc1ccc(S(=O)(=O)N2[C@@H](c3cccc(C)c3)C(C(=O)O)=CC[C@H]2c2cccc(C)c2)cc1` it was 58%; in that of `COc1ccc([C@@H]2C=CCCN2S(=O)(=O)c2ccc(C)cc2)cc1`, 99.7%.
For `CCCCCCS[C@@H]1C[C@@H](c2cccc(Br)c2)N(S(=O)(=O)c2ccc(C)cc2)C[C@H]1C(=O)O` the value was 68.9%.
`Cc1ccc(S(=O)(=O)N2[C@@H](c3cccc(Br)c3)C(C(=O)O)=CC[C@H]2c2cccc(C)c2)cc1`: the Activity amounted to 39.1%.
For `Cc1ccc([C@@H]2C[C@@H](Sc3ccccc3)[C@H](C(=O)O)CN2S(=O)(=O)c2ccccc2)cc1` the value was 92%; for `CCCCCS[C@@H]1C[C@@H](c2cccc(Cl)c2)N(S(=O)(=O)c2ccc(C)cc2)C[C@H]1C(=O)O`, 84.6%.
In the case of `COc1ccc([C@@H]2C[C@@H](SCc3ccc(Cl)cc3)[C@H](C(=O)O)CN2S(=O)(=O)c2ccc(C)cc2)cc1OC` it was 69.1%; in that of `Cc1ccccc1S(=O)(=O)N1[C@@H](c2ccc(Cl)cc2)C(C(=O)O)=CC[C@H]1c1ccc(Cl)cc1`, 54.4%; in that of `COc1ccc([C@@H]2CC=C(C(=O)O)[C@H](c3cccc(F)c3)N2S(=O)(=O)c2ccccc2)cc1`, 91.8%.
In the case of `CCCCCS[C@@H]1C[C@@H](c2ccc(Cl)cc2)N(S(=O)(=O)c2ccccc2C)C[C@H]1C(=O)O` it was 57.9%; in that of `Cc1ccc([C@@H]2CC=C(C(=O)O)[C@H](c3ccc(C(C)(C)C)cc3)N2S(=O)(=O)c2ccccc2)cc1`, 81.6%.
On to `COc1ccc([C@@H]2C[C@@H](SCc3ccccc3)[C@H](C(=O)O)CN2S(=O)(=O)c2ccccc2)cc1`, for which the Activity stood at 57.3%.
In the case of `Cc1ccc([C@@H]2C[C@@H](SC3CCCC3)[C@H](C(=O)O)CN2S(=O)(=O)c2ccccc2)cc1` it was 100%; in that of `Cc1ccc(S[C@@H]2C[C@@H](c3ccc(Cl)cc3)N(S(=O)(=O)c3ccc(C)cc3)C[C@H]2C(=O)O)cc1`, 76.1%.
